Assay results from publication PMC10683482, “Offsetting Low-Affinity Carbohydrate Binding with Covalency to Engage Sugar-Specific Proteins for Tumor-Immune Proximity Induction” (ACS Central Science, 2023).
Read-outs that look alike come from different tables or passages of the source.

System: monoclonal anti-23F antibody
Experiment: BLI affinity of rhamnose probes for monoclonal anti-23F
Assay type: binding, human
Details: for koff: dissociation in 100 mM L-rhamnose; for anti-23F recognition of glycoside variant: 125 nM anti-23F association
Excerpt: Figure 1 Affinity determination of endogenous and monoclonal antibody sources for L-rhamnose glycoside variants. A. Chemical structures of rhamnose affinity probes. B/C. Approximation of antirhamnose antibody binding affinity for probes 1–3 using biolayer interferometry. B. Purified human serum IgG is used to estimate the affinity of endogenous polyclonal serum antirhamnose antibodies for each affinity probe 1–3. C. Monoclonal anti-23F antibody is used to estimate the potential affinity of vaccine-induced antirhamnose antibodies for each affinity probe 1–3. […] Association was monitored for 900 (B) or 600 (C) seconds. The loaded biosensor probe was then dipped into a dissociation solution of 100 mM L-rhamnose for 600 s. Association curves were fit to a two-phase association model in GraphPad Prism using Kfast to calculate kon. Dissociation curves were similarly fit to a two-phase decay using Kfast to calculate koff. TEXT PRINTED IN THE PICTURE: (B) no label printed: Polyclonal Human IgG: Kd ≈ 7 x10^-5 M | (C) no label printed: Monoclonal Anti-23F: Kd ≈ 6 x10^-6 M DOUBTS OF THE COPYIST ABOUT THIS PICTURE: Panel B, Kd ≈ 7 x10^-5 M: printed once in the plot with no link to a single curve, so it is unclear which of (1) α–O, (2) α–S and (3) β–S it applies to / Panel C, Kd ≈ 6 x10^-6 M: printed once in the plot with no link to a single curve, so it is unclear which of (1) α–O, (2) α–S and (3) β–S it applies to […]
The advancement of synthetic immunotherapeutic modalities targeting anti-rhamnose antibodies has been complicated by a lack of model monoclonal antibody to enable medicinal chemistry optimization. Previous studies relied on polyclonal antirhamnose sources (e.g., human/rabbit serum) for validation studies. We hypothesized that antibodies induced by vaccination against the 23F serotype of streptococcus pneumonia (which contains α-rhamnose) would serve as a source of novel monoclonal antibodies. FDA-approved vaccines (such as PPV23) can induce anti-23F antibodies, with patient-derived monoclonal anti-23F antibody sequences commercially available.[22]−[24] We proceeded to study anti-23F in BLI assays as done in Figure 1B (Figure 1C, association phase = 125 nM anti-23F). […] Furthermore, given the efficient recognition of α-rhamnose by both endogenous human polyclonal and monoclonal antirhamnose sources, it was selected as the ABD for subsequent cARM development.
General Notes and Materials […]
Biolayer Interferometry (BLI) General notes and Materials
IgG from human serum was purchased from Innovative Research (IHUI GGAP1000MG). Anti -23F antibody was purchased fr om Creative Biolabs (PABX -173). Biolayer Interferometry (BLI) was conducted using a ForteBio Octet Red96, and streptavidin biosensors (Sartorius - 18-5019) or ProG biosensors (Sartorius – 18-5082). For quench, a 5% skim milk (Nestle Carnation Instant Skim Milk) solution in 1X kinetics buffer was used. The instrument was set at 25 °C, with 1000 RPM, and acquisition rate of 5 Hz.
Each well of a black well plate (Greiner Bio -One - 655086) was filled with 200 µL of appropriate solution.
Dissociation buffer was comprised of L-rhamnose (100 mM, Sigma Aldrich – R3875-10G) in 1X kinetics buffer to reduce avidity contribution to dissociation rate (koff).
SDS-PAGE General notes and Materials […]
Carboxyfluorescein was purchased from Sigma Aldrich (21877 -5G-F). IgG from human serum was purchased from Innovative Research (IHUIGGAP1000MG). Anti -23F antibody was purchased from Creative Biolabs (PABX -173). Laemellie Buffer (2x) was purchased from Sigma Aldrich (S3401 -10VL).
Pre-cast Tris-Glycine Gels (4-20%) were purchased from Fisher Scientific (XP04202BOX). […]
A647-alkyne was purchased from Broadpharm (BP-28217). Gels were stained using Coomassie Stain from Bio Rad (1610786), and subsequently imaged using an Odyssey CLX imager. Gels were run at 90V for 15 minutes, followed by […]
ADCC Reporter Assay General notes and Materials […]

[1] = average of three anti-23F concentrations, read-out: Avg Kd

Row | Structure (SMILES) | kon (125 nM Anti-23F) [M⁻¹ s⁻¹] | koff (125 nM Anti-23F) [s⁻¹] | Kd (125 nM Anti-23F, read-out: Kd) [µM] | anti-23F recognition of glycoside variant | kon (250 nM Anti-23F) [M⁻¹ s⁻¹] | koff (250 nM Anti-23F) [s⁻¹] | Kd (250 nM Anti-23F, read-out: Kd) [µM] | kon (500 nM Anti-23F) [M⁻¹ s⁻¹] | koff (500 nM Anti-23F) [s⁻¹] | Kd (500 nM Anti-23F, read-out: Kd) [µM] | Kd [1] [µM]
1 | C[C@@H]1O[C@@H](SCc2cn(CCOCCNC(=O)OCCOCCOCCOCCOCCOCCOCCOCCNC(=O)CCCC[C@@H]3SC[C@@H]4NC(=O)N[C@@H]43)nn2)[C@H](O)[C@H](O)[C@H]1O [compound 2] | 770000 | 4.018 | 5.2 | uniquely specific for α-glycoside variants | 730000 | 4.378 | 6 | 560000 | 3.509 | 6.2 | 5.8 ± 0.5
2 | C[C@@H]1O[C@@H](OCc2cn(CCOCCNC(=O)OCCOCCOCCOCCOCCOCCOCCOCCNC(=O)CCCC[C@@H]3SC[C@@H]4NC(=O)N[C@@H]43)nn2)[C@H](O)[C@H](O)[C@H]1O [compound 1] | 1.1e+06 | 5.591 | 5.2 | uniquely specific for α-glycoside variants | 920000 | 5.773 | 6.2 | 630000 | 4.673 | 7.4 | 6.3 ± 1.1
